For orientation: EC50 means the concentration that produces a half-maximal response.

Series [1] can be described thus: Therapeutic index, ratio of cytotoxicity against human MT4 cells to antiviral activity against HIV NL4-3. To be noted: read-out: TI. It counts as toxicity, cell-based.
In series [2] the test system is Human immunodeficiency virus. The experiment in a line: Antiviral activity against HIV NL4-3 infected in MT-4 cells assessed as viral replication measured after 4 days by p24-ELISA. It counts as functional, organism-based. To be noted: Human immunodeficiency virus 1, NL4-3, MT4, 96 h. For orientation: In an ELISA, binding on a coated surface is turned into a signal by an enzyme label.

`CCC/C=C/C=C/C=C\C(=O)O[C@@H]1[C@@H](C)[C@]2(O)[C@@H]3C=C(C)C(=O)[C@H]3CC(CO)=C[C@H]2[C@@H]2C(C)(C)[C@]12OC(C)=O`: in series [1], the selectivity ratio is 161. For the same compound, the 50% effective concentration (EC50) in series [2] is 130 nM.

In the case of `Cc1cn([C@H]2C[C@H](N=[N+]=[N-])[C@@H](CO)O2)c(=O)[nH]c1=O` [ZIDOVUDINE], the selectivity ratio in series [1] was > 22. For the same compound, in series [2], the EC50 was 20 nM.

Consider `CNc1ccccc1C(=O)O[C@@H]1[C@@H](C)[C@@]2(O)[C@@H](C=C(CO)C[C@]3(O)C(=O)C(C)=C[C@@H]23)[C@@H]2C(C)(C)[C@]12OC(C)=O`, for which the selectivity ratio in series [1] was 5290. The EC50 in series [2] worked out at 44 nM.

Consider `CNc1ccccc1C(=O)O[C@@H]1[C@@H](C)[C@]2(O)[C@@H]3C=C(C)C(=O)[C@H]3CC(CO)=C[C@H]2[C@@H]2C(C)(C)[C@]12OC(C)=O` [SAPINTOXIN A], for which the selectivity ratio in series [1] is 1100. Further, in series [2], the EC50 worked out at 7.4 nM.

The values are drawn from ChEMBL document CHEMBL5126667, “Tigliane-Type Diterpene Esters from the Fruits of Shirakiopsis indica and Their Anti-HIV Activity” (J Nat Prod, 2022).
